Data: patent publication US8003655B2, “Substituted sulphoximines as TIE2 inhibitors and salts thereof, pharmaceutical compositions comprising same, methods of preparing same and uses of same” (Bayer Schering Pharma AG, priority 2006, dated 2011)

What was measured:
Assay type in all cases: biochemical
Tie2 = target: T1, Tie2 (Homo sapiens, UniProt Q02763); assay: Tie2-Kinase HTRF-Assay without kinase preactivation (assay 2); details: 10 μM ATP, pIC50 = −log IC50 in molar concentration, read-out: Tie 2 activity (assay 2)
T1 construct: A recombinant fusion protein of GST and the intracellular domains of Tie2; GST; made in house; host or cells: insect cells (Hi-5)
T1 sequence (Q02763 770-1124 limits assumed): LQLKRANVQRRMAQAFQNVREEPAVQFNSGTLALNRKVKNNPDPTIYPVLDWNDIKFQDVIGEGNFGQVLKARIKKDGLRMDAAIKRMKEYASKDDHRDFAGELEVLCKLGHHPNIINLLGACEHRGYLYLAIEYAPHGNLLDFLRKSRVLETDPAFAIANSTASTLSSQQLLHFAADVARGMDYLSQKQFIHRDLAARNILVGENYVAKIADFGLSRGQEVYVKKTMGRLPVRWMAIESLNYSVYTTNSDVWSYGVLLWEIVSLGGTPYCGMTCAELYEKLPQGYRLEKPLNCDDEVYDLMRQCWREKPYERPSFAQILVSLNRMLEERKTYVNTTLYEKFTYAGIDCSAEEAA
From the text: Tie2-inhibitory activity of compounds of the present invention was quantified employing two Tie2 HTRF assay as described in the following paragraphs.
A recombinant fusion protein of GST and the intracellular domains of Tie2, expressed in insect cells (Hi-5) and purified by Glutathion-Sepharose affinity chromatography was used as kinase. Alternatively, commercially available GST-Tie2-fusion protein (Upstate Biotechnology, Dundee, Scotland) can be used as substrate for the kinase reaction the biotinylated peptide biotin-Ahx-EPKDDAYPLYSDFG (C-terminus in amid form) was used which can be purchased e.g. from the company Biosynthan GmbH (Berlin-Buch, Germany). Detection of phosphorylated product is achieved specifically by a trimeric detection complex consisting of the phosphorylated substrate, streptavidin-XLent (SA-XLent) which binds to biotin, and Europium Cryptate-labeled anti-phosphotyrosine antibody PT66 which binds to phosphorylated tyrosine.
Tie2 (3.5 ng/measurement point) was incubated for 60 min at 22° C. in the presence of 10 μM adenosine-tri-phosphate (ATP) and 1 μM substrate peptide (biotin-Ahx-EPKDDAYPLYSDFG-NH2) with different concentrations of test compounds (0 μM and concentrations in the range 0.001-20 μM) in 5 μl assay buffer [50 mM Hepes/NaOH pH 7, 10 mM MgCl2, 0.5 mM MnCl2, 1.0 mM dithiothreitol, 0.01% NP40, protease inhibitor mixture (“Complete w/o EDTA” from Roche, 1 tablet per 2.5 ml), 1% (v/v) dimethylsulfoxide]. The reaction was stopped by the addition of 5 μl of an aqueous buffer (25 mM Hepes/NaOH pH 7.5, 0.28% (w/v) bovine serum albumin) containing EDTA (90 mM) and the HTRF (Homogeneous Time Resolved Fluorescence) detection reagents streptavidine-XLent (0.2 μM, from Cis Biointernational, Marcoule, France) and PT66-Eu-Chelate (0.3 ng/μl; a europium-chelate labelled anti-phospho-tyrosine antibody from Perkin Elmer).
(§1) The resulting mixture was incubated 1 h at 22° C. to allow the binding of the biotinylated phosphorylated peptide to the streptavidine-XLent and the PT66-Eu-Chelate. Subsequently the amount of phosphorylated substrate peptide was evaluated by measurement of the resonance energy transfer from the PT66-Eu-Chelate to the streptavidine-XLent. Therefore, the fluorescence emissions at 620 nm and 665 nm after excitation at 350 nm was measured in a HTRF reader, e.g. a Rubystar (BMG Labtechnologies, Offenburg, Germany) or a Viewlux (Perkin-Elmer). The ratio of the emissions at 665 nm and at […] was taken as the measure for the amount of phosphorylated substrate peptide. The data were normalised (enzyme reaction without inhibitor=0% inhibition, all other assay components but no enzyme=100% inhibition) and IC50 values were calculated by a 4 parameter fit using an inhouse software.

CDK2/CycE = target: T2, CDK2/CycE (Homo sapiens, UniProt P24941); assay: CDK2 HTRF Assay (assay 4); details: 10 μM ATP, pIC50 = −log IC50 in molar concentration
T2 construct: GST; purchased ProQinase GmbH (Freiburg, Germany); host or cells: insect cells (Sf9)
From the text: CDK2/CycE-inhibitory activity of compounds of the present invention was quantified employing the CDK2/CycE HTRF assay as described in the following paragraphs.
Recombinant fusion proteins of GST and human CDK2 and of GST and human CycE, expressed in insect cells (Sf9) and purified by Glutathion-Sepharose affinity chromatography, were purchase from ProQinase GmbH (Freiburg, Germany). As substrate for the kinase reaction biotinylated peptide biotin-Ttds-YISPLKSPYKISEG (C-terminus in amid form) was used which can be purchased e.g. form the company JERINI peptide technologies (Berlin, Germany).
CDK2/CycE was incubated for 60 min at 22° C. in the presence of different concentrations of test compounds in 5 μl assay buffer [50 mM Tris/HCl pH 8.0, 10 mM MgCl2, 1.0 mM dithiothreitol, 0.1 mM sodium ortho-vanadate, 10 μM adenosine-tri-phosphate (ATP), 0.75 μM substrate, 0.01% (v/v) Nonidet-P40 (Sigma), 1% (v/v) dimethylsulfoxide]. The concentration of CDK2/CycE was adjusted depending of the activity of the enzyme lot and was chosen appropriate to have the assay in the linear range, typical concentrations were in the range of 1 ng/ml. The reaction was stopped by the addition of 5 μl of a solution of HTRF detection reagents (0.2 μM streptavidine-XLent and 3.4 nM Phospho-(Ser) CDKs Substrate Antibody [product #2324B, Cell Signalling Technology, Danvers, Mass., USA} and 4 nM Prot-A-EuK [Protein A labeled with Europium Cryptate from Cis biointernational, France, product no. 61PRAKLB]) in an aqueous EDTA-solution (100 mM EDTA, 800 mM KF, 0.2% (w/v) bovine serum albumin in 100 mM HEPES/NaOH pH 7.0).

preactivated Tie2 = target: T3, preactivated Tie2 (Homo sapiens, UniProt Q02763); assay: Tie2-Kinase HTRF-Assay with kinase preactivation (assay 3); details: 10 μM ATP, pIC50 = −log IC50 in molar concentration, read-out: Tie 2 activity (assay 3)
T3 construct: A recombinant fusion protein of GST and the intracellular domains of Tie2; GST; made in house; host or cells: insect cells (Hi-5)
T3 sequence (Q02763 770-1124 limits assumed): as above
Method: Assay 3: Tie2-Kinase HTRF-Assay with Kinase Preactivation
A recombinant fusion protein of GST and the intracellular domains of Tie2, expressed in insect cells (Hi-5) and purified by Glutathion-Sepharose affinity chromatography was used as kinase. As substrate for the kinase reaction the biotinylated peptide biotin-Ahx-EPKDDAYPLYSDFG (C-terminus in amid form) was used which can be purchased e.g. from the company Biosynthan GmbH (Berlin-Buch, Germany).
For activation, Tie2 was incubated at a conc. 12.5 ng/μl of for 20 min at 22° C. in the presence of 250 μM adenosine-tri-phosphate (ATP) in assay buffer [50 mM Hepes/NaOH pH 7, 10 mM MgCl2, 0.5 mM MnCl2, 1.0 mM dithiothreitol, 0.01% NP40, protease inhibitor mixture (“Complete w/o EDTA” from Roche, 1 tablet per 2.5 ml)].
For the subsequent kinase reaction, the preactivated Tie2 (0.5 ng/measurement point) was incubated for 20 min at 22° C. in the presence of 10 μM adenosine-tri-phosphate (ATP) and 1 μM substrate peptide (biotin-Ahx-EPKDDAYPLYSDFG-NH2) with different concentrations of test compounds (0 μM and concentrations in the range 0.001-20 μM) in 5 μl assay buffer [50 mM Hepes/NaOH pH 7, 10 mM MgCl2, 0.5 mM MnCl2, 0.1 mM sodium ortho-vanadate, 1.0 mM dithiothreitol, 0.01% NP40, protease inhibitor mixture (“Complete w/o EDTA” from Roche, 1 tablet per 2.5 ml), 1% (v/v) dimethylsulfoxide]. The reaction was stopped by the addition of 5 μl of an aqueous buffer (25 mM Hepes/NaOH pH 7.5, 0.28% (w/v) bovine serum albumin) containing EDTA (90 mM) and the HTRF (Homogeneous Time Resolved Fluorescence) detection reagents streptavidine-XLent (0.2 μM, from Cis Biointernational, Marcoule, France) and PT66-Eu-Chelate (0.3 ng/μl; a europium-chelate labelled anti-phospho-tyrosine antibody from Perkin Elmer).
as §1

| SMILES | IC50 (Tie2) [nM] | IC50 (CDK2/CycE) [nM] | IC50 (preactivated Tie2) [nM] |
| --- | --- | --- | --- |
| CCOC(=O)N=S(C)(=O)c1cccc(Nc2ncc(-c3ccc(NS(=O)(=O)c4cccc(Cl)c4Cl)cc3)c(N[C@H](C)CO)n2)c1 (mixture of isomers) [Example 2, 2,3-Dichloro-N-{4-[2-({3-[(RS)-N-(ethoxycarbonyl)-S-methylsulfonimidoyl]phenyl}amino)-4-{[(R)-2-hydroxy-1-methylethyl]amino}pyrimidin-5-yl]-phenyl}benzenesulfonamide] | 100 to 1000 | > 10000 | 100 to 1000 |
| CCOC(=O)N=S(C)(=O)c1cccc(Nc2ncc(-c3ccc(NS(=O)(=O)c4cccc(Cl)c4Cl)c(F)c3)c(N[C@H](C)CO)n2)c1 (mixture of isomers) [Example 13, 2,3-Dichloro-N-{4-[2-({3-[(RS)-N-(ethoxycarbonyl)-S-methylsulfonimidoyl]phenyl}amino)-4-{[(R)-2-hydroxy-1-methylethyl]amino}-pyrimidin-5-yl]-2-fluorophenyl}-benzenesulfonamide] | 100 to 1000 | > 10000 | 100 to 1000 |
| CNc1nc(Nc2cccc(S(C)(=N)=O)c2)ncc1-c1ccc(NC(=O)Nc2cc(C(F)(F)F)ccc2F)c(F)c1 (racemic) [Example 49, 1-{2-Fluoro-4-[4-(methylamino)-2-{[3-(RS)-(S-methylsulfonimidoyl)phenyl]amino}-pyrimidin-5-yl]phenyl}-3-[2-fluoro-5-(trifluoromethyl)-phenyl]urea] | < 100 | > 10000 | < 100 |
| C[C@H](CO)Nc1nc(Nc2cccc(S(C)(=N)=O)c2)ncc1-c1ccc(NC(=O)C2(c3ccccc3)CC2)cc1 (mixture of isomers) [Example 33, N-{4-[4-{[(R)-2-Hydroxy-1-methylethyl]amino}-2-({3-[(RS)-S-methylsulfonimidoyl]phenyl}amino)pyrimidin-5-yl]phenyl}-1-phenylcyclopropanecarboxamide] | < 100 | > 10000 | 100 to 1000 |
| CCOC(=O)N=S(C)(=O)c1cccc(Nc2ncc(-c3ccc(NC(=O)Nc4cc(C(F)(F)F)ccc4F)c(F)c3)c(OC)n2)c1 (racemic) [Example 31, 1-{4-[2-({3-[(RS)-N-(Ethoxycarbonyl)-S-methylsulfonimidoyl]phenyl}amino)-4-(methoxy)-pyrimidin-5-yl]-2-fluorophenyl}-3-[2-fluoro-5-(trifluoromethyl)-phenyl]urea] | < 100 | > 10000 | < 100 |
| COc1nc(Nc2cccc(S(C)(=N)=O)c2)ncc1-c1ccc(NC(=O)Nc2cc(C(F)(F)F)ccc2F)c(F)c1 (racemic) [Example 45, 1-[2-Fluoro-4-(4-methoxy-2-{[3-(RS)-(S-methylsulfon-imidoyl)phenyl]-amino}pyrimidin-5-yl)phenyl]-3-[2-fluoro-5-(trifluoromethyl)phenyl]urea] | < 100 | > 10000 | < 100 |
| C[C@H](CO)Nc1nc(Nc2cccc(S(C)(=N)=O)c2)ncc1-c1ccc(NS(=O)(=O)c2cccc(Cl)c2Cl)c(F)c1 (mixture of isomers) [Example 42, 2,3-Dichloro-N-[2-fluoro-4-(4-{[(R)-2-hydroxy-1-methylethyl]amino}-2-{[3-(RS)-(S-methylsulfonimidoyl)phenyl]amino}-pyrimidin-5-yl)phenyl]benzene-sulfonamide] | 100 to 1000 | > 10000 | < 100 |
| CCOC(=O)N=S(C)(=O)c1ccc(Nc2ncc(-c3ccc(NC(=O)Nc4cccc(C(F)(F)F)c4)cc3)c(N[C@H](C)CO)n2)cc1 (mixture of isomers) [Example 7, 1-{4-[2-({4-[(RS)-N-(Ethoxycarbonyl)-S-methylsulfonimidoyl]phenyl}amino)-4-{[(R)-2-hydroxy-1-methylethyl]amino}-pyrimidin-5-yl]-phenyl}-3-[3-(trifluoromethyl)-phenyl]urea] | < 100 | > 10000 | < 100 |
| CS(=N)(=O)c1cccc(Nc2ncc(-c3ccc(NC(=O)Nc4cc(C(F)(F)F)ccc4F)c(F)c3)c(NCCCN3CCOCC3)n2)c1 (racemic) [Example 43, 1-[2-Fluoro-4-(2-{[3-(RS)-(S-methylsulfonimidoyl)phenyl]amino}-4-[(3-morpholin-4-ylpropyl)amino]-pyrimidin-5-yl)phenyl]-3-[2-fluoro-5-(trifluoromethyl)-phenyl]urea] | < 100 | > 10000 | < 100 |
| COc1nc(Nc2cccc(S(C)(=N)=O)c2)ncc1-c1ccc(NS(=O)(=O)c2cccc(Cl)c2Cl)c(F)c1 (racemic) [Example 46, 2,3-Dichloro-N-[2-fluoro-4-(4-methoxy-2-{[3-(RS)-(S-methylsulfonimidoyl)phenyl]amino}pyrimi-din-5-yl)phenyl]benzenesul-fonamide] | 100 to 1000 | > 10000 | 100 to 1000 |
| CCOC(=O)N=S(C)(=O)c1cccc(Nc2ncc(-c3ccc(NC(=O)Nc4cc(C(F)(F)F)ccc4F)c(F)c3)c(NCCN3CCN(C)CC3)n2)c1 (racemic) [Example 28, 1-{4-[2-({3-[(RS)-N-(Ethoxycarbonyl)-S-methylsulfonimidoyl]phenyl}amino)-4-{[2-(N-methyl-piperazin-4-yl)ethyl]amino}pyri-midin-5-yl]-2-fluorophenyl}-3-[2-fluoro-5-(trifluoromethyl)-phenyl]urea] | < 100 | > 10000 | 100 to 1000 |
